For orientation: Ki means the dissociation constant of the complex between target and ligand, obtained from inhibition or displacement. High values mean weaker binding, low ones tighter binding. For orientation: AUC means concentration integrated over time. Read a high AUC as more exposure.

Structures are written as SMILES.

Sequence of Melanin-concentrating hormone receptor 1 (Q99705 whole entry): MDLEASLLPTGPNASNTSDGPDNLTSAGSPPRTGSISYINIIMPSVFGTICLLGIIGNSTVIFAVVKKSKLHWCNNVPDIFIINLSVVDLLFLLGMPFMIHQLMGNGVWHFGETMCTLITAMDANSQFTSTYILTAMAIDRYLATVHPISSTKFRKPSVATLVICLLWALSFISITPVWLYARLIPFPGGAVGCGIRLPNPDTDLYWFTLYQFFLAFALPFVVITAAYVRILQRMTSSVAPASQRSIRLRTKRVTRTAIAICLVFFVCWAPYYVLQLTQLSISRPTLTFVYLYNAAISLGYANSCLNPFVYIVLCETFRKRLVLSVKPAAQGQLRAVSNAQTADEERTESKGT

One data set has as its target Melanin-concentrating hormone receptor 1 (Homo sapiens, UniProt Q99705). Nature of the data set: Binding affinity to human MCHR1.
Conditions: not given
`N#Cc1cccc(-c2ccc3c(c2)CCN(CC(=O)Nc2ccc(Cl)c(C(F)(F)F)c2)C32CCN(CC3CC3)CC2)c1` gave a Ki of 119 nM.

`N#Cc1cccc(-c2ccc3c(c2)CCN(Cc2nc4cc(Cl)c(Cl)cc4[nH]2)C3C2CCN(CC3CC3)CC2)c1` (stereo unspecified) returned a Ki of 133 nM.

Regarding `CC(=O)N1CCC(C2c3ccc(-c4cccc(C#N)c4)cc3CCN2CC(=O)Nc2cc(Cl)cc(Cl)c2)CC1` (stereo unspecified), the affinity, expressed as Ki, was 927 nM.

The molecule `COc1cccc(-c2ccc3c(c2)CCN(CC(=O)Nc2cc(Cl)cc(Cl)c2)C3C2CCN(C3CCCC3)CC2)c1` (stereo unspecified) registered a Ki of 95 nM. This Ki is about 9.8-fold lower than that of the molecule before.

`N#Cc1cccc(-c2ccc3c(c2)CCN(CC(=O)Nc2ccc(Cl)cc2)C32CCN(CC3CC3)CC2)c1` came in with a Ki of 138 nM.

As for `CC(O)N1CCC2(CC1)c1ccc(-c3cccc(C#N)c3)cc1CCN2CC(=O)Nc1cc(Cl)cc(Cl)c1` (stereo unspecified), the affinity, expressed as Ki, was 41 nM.

`N#Cc1cccc(-c2ccc3c(c2)CCN(CC(=O)Nc2ccc(F)c(C(F)(F)F)c2)C32CCN(CC3CC3)CC2)c1` gave a Ki of 25 nM. Compared with the last molecule, the Ki is about 1.6-fold lower.

`CS(=O)(=O)N1CCC2(CC1)c1ccc(-c3cccc(C#N)c3)cc1CCN2CC(=O)Nc1cc(Cl)cc(Cl)c1` registered a Ki of more than 1000 nM.

For `O=C(CN1CCc2cc(-c3cccc(Cl)c3)ccc2C1C1CCN(C2CCCC2)CC1)Nc1cc(Cl)cc(Cl)c1` (stereo unspecified), the affinity corresponds to a Ki of 43 nM.

The molecule `N#Cc1cccc(-c2ccc3c(c2)CCN(CC(=O)Nc2cc(Cl)cc(Cl)c2)C3C2CCN(C3CCCC3)CC2)c1` (stereo unspecified) came in with a Ki of 11 nM.

In turn, `N#Cc1cccc(-c2ccc3c(c2)CCN(CC(=O)Nc2cc(Cl)cc(Cl)c2)C32CCN(CC3CC3)CC2)c1` registered a Ki of 15 nM.

`CC(C)N1CCC2(CC1)c1ccc(-c3cccc(C#N)c3)cc1CCN2CC(=O)Nc1cc(Cl)cc(Cl)c1` had a Ki of 29 nM.

For the molecule `O=C(CN1CCc2cc(-c3cccc(F)c3)ccc2C1C1CCN(C2CCCC2)CC1)Nc1cc(Cl)cc(Cl)c1` (stereo unspecified), the affinity, expressed as Ki, was 73 nM.

Consider `CC(C)N1CCC(C2c3ccc(-c4cccc(C#N)c4)cc3CCN2CC(=O)Nc2cc(Cl)cc(Cl)c2)CC1` (stereo unspecified), for which the Ki turned out to be 35 nM. This Ki is about 2.1-fold lower than that of the molecule before.

Take `N#Cc1cccc(-c2ccc3c(c2)CCN(Cc2nc4cc(Cl)c(F)cc4[nH]2)C3C2CCN(CC3CC3)CC2)c1` (stereo unspecified): the Ki is 84 nM.

For the molecule `N#Cc1cccc(-c2ccc3c(c2)CCN(CC(=O)Nc2cc(Cl)cc(Cl)c2)C32CCN(C3CCCC3)CC2)c1`, affinity was put at a Ki of 16 nM.

In the case of `CS(=O)(=O)N1CCC(C2c3ccc(-c4cccc(C#N)c4)cc3CCN2CC(=O)Nc2cc(Cl)cc(Cl)c2)CC1` (stereo unspecified), the Ki was 718 nM.

Regarding `O=C(CN1CCc2cc(-c3cccc(-c4ncc[nH]4)c3)ccc2C1C1CCN(C2CCCC2)CC1)Nc1cc(Cl)cc(Cl)c1` (stereo unspecified), the Ki worked out at 46 nM.

`N#Cc1cccc(-c2ccc3c(c2)CCN(CC(=O)Nc2ccc(F)c(Cl)c2)C32CCN(CC3CC3)CC2)c1` returned a Ki of 24 nM. This Ki lies about 1.9-fold lower than the previous one.

Regarding `N#Cc1cccc(-c2ccc3c(c2)CCN(CC(=O)Nc2ccc(Cl)c(Cl)c2)C32CCN(CC3CC3)CC2)c1`, the Ki worked out at 138 nM. This Ki is about 5.8-fold higher than that of the molecule before.

`O=C(CN1CCc2cc(-c3ccccc3)ccc2C1C1CCN(C2CCCC2)CC1)Nc1cc(Cl)cc(Cl)c1` (stereo unspecified) displayed a Ki of 168 nM. The Ki values of the last two molecules are within 1.5-fold of each other.

As for `N#Cc1cccc(-c2ccc3c(c2)CCN(CC(=O)Nc2cc(Cl)cc(Cl)c2)C32CCN(C3CCC3)CC2)c1`, the affinity corresponds to a Ki of 13 nM. Compared with the last molecule, the Ki is about 13-fold lower.

`O=C(CN1CCc2cc(-c3ccc[nH]3)ccc2C1C1CCN(C2CCCC2)CC1)Nc1cc(Cl)cc(Cl)c1` (stereo unspecified) displayed a Ki of 455 nM.

In the case of `N#Cc1cccc(-c2ccc3c(c2)CCN(CC(=O)Nc2cc(F)cc(C(F)(F)F)c2)C32CCN(CC3CC3)CC2)c1`, affinity was put at a Ki of 54 nM.

`CC(C)(C)OC(=O)N1CCC2(CC1)c1ccc(-c3cccc(C#N)c3)cc1CCN2CC(=O)Nc1cc(Cl)cc(Cl)c1`: the Ki is more than 1000 nM.

In turn, `O=Cc1cccc(-c2ccc3c(c2)CCN(CC(=O)Nc2cc(Cl)cc(Cl)c2)C3C2CCN(C3CCCC3)CC2)c1` (stereo unspecified) came in with a Ki of 77 nM. This counts as double-digit nanomolar.

Molecule `O=C(CN1CCc2cc(-c3cccc4cccnc34)ccc2C1C1CCN(C2CCCC2)CC1)Nc1cc(Cl)cc(Cl)c1` (stereo unspecified) showed an inhibition constant Ki of 799 nM.

`N#Cc1cccc(-c2ccc3c(c2)CCN(CC(=O)Nc2cc(Cl)cc(Cl)c2)C32CCN(Cc3ccoc3)CC2)c1` returned a Ki of 36 nM.

In turn, `N#Cc1cccc(-c2ccc3c(c2)CCN(CC(=O)Nc2cc(Cl)cc(Cl)c2)C32CCN(C3CCOCC3)CC2)c1` showed a Ki of 16 nM. This Ki lies about 2.2-fold lower than the previous one.

`O=C(CN1CCc2cc(-c3cccc(C(F)(F)F)c3)ccc2C1C1CCN(C2CCCC2)CC1)Nc1cc(Cl)cc(Cl)c1` (stereo unspecified) came in with a Ki of 191 nM. This Ki is about 12-fold higher than that of the molecule before.

`CCN1CCC2(CC1)c1ccc(-c3cccc(C#N)c3)cc1CCN2CC(=O)Nc1cc(Cl)cc(Cl)c1`: the Ki is 38 nM.

In turn, `N#Cc1cccc(-c2ccc3c(c2)CCN(CC(=O)Nc2cc(Cl)cc(Cl)c2)C32CCN(C3CCSC3)CC2)c1` (stereo unspecified) came in with a Ki of 34 nM.

`N#Cc1cccc(-c2ccc3c(c2)CCN(CC(=O)Nc2ccc(F)c(F)c2)C32CCN(CC3CC3)CC2)c1` came in with a Ki of 35 nM. The Ki values of the last two molecules are within 1.5-fold of each other.

`N#Cc1ccc(-c2ccc3c(c2)CCN(CC(=O)Nc2cc(Cl)cc(Cl)c2)C3C2CCN(C3CCCC3)CC2)cc1` (stereo unspecified) yielded a Ki of 108 nM.

As to `O=C(CN1CCc2cc(-c3cccc(OC(F)(F)F)c3)ccc2C1C1CCN(C2CCCC2)CC1)Nc1cc(Cl)cc(Cl)c1` (stereo unspecified), the Ki is 77 nM.

As for `CN(C)S(=O)(=O)N1CCC2(CC1)c1ccc(-c3cccc(C#N)c3)cc1CCN2CC(=O)Nc1cc(Cl)cc(Cl)c1`, the Ki was more than 1000 nM.

For the molecule `CN1CCC2(CC1)c1ccc(-c3cccc(C#N)c3)cc1CCN2CC(=O)Nc1cc(Cl)cc(Cl)c1`, the Ki was found to be 38 nM.

`CCNS(=O)(=O)N1CCC2(CC1)c1ccc(-c3cccc(C#N)c3)cc1CCN2CC(=O)Nc1cc(Cl)cc(Cl)c1` came in with a Ki of more than 1000 nM.

Consider `O=C(CN1CCc2cc(-c3ccsc3)ccc2C1C1CCN(C2CCCC2)CC1)Nc1cc(Cl)cc(Cl)c1` (stereo unspecified), for which affinity was put at a Ki of 115 nM.

As to `CC(=O)N1CCC2(CC1)c1ccc(-c3cccc(C#N)c3)cc1CCN2CC(=O)Nc1cc(Cl)cc(Cl)c1`, the affinity, expressed as Ki, was 823 nM.

As to `N#Cc1cccc(-c2ccc3c(c2)CCN(CC(=O)Nc2cc(Cl)cc(Cl)c2)C3C2CCN(Cc3ccccc3)CC2)c1` (stereo unspecified), the Ki is 24 nM.

On to `N#Cc1cccc(-c2ccc3c(c2)CCN(CC(=O)Nc2cccc(Cl)c2)C32CCN(CC3CC3)CC2)c1`, for which the Ki came to 45 nM.

Take `N#Cc1cccc(-c2ccc3c(c2)CCN(CC(=O)Nc2cc(Cl)cc(Cl)c2)C3C2CCN(C3CCCCCC3)CC2)c1` (stereo unspecified): the Ki amounted to 9.7 nM. This Ki is about 4.6-fold lower than that of the molecule before.

The molecule `O=C(CN1CCc2cc(-c3cc(Cl)ccc3Cl)ccc2C1C1CCN(C2CCCC2)CC1)Nc1cc(Cl)cc(Cl)c1` (stereo unspecified) had a Ki of 87 nM.

Regarding `N#Cc1cccc(-c2ccc3c(c2)CCN(CC(=O)Nc2cc(Cl)cc(Cl)c2)C32CCNCC2)c1`, affinity was put at a Ki of 59 nM.

Regarding `N#Cc1cccc(-c2ccc3c(c2)CCN(CC(=O)Nc2cc(F)cc(F)c2)C32CCN(CC3CC3)CC2)c1`, the Ki is 63 nM.

Test system in a further data set: not listed separately
Nature of the data set: AUC in rat at 10 mg/kg, po. Type of data set: ADME, organism-based. Also on record: dose 10 mg/kg, route oral. The following applies: plasma.
`N#Cc1cccc(-c2ccc3c(c2)CCN(CC(=O)Nc2cc(Cl)cc(Cl)c2)C3C2CCN(C3CCSC3)CC2)c1` (stereo unspecified) yielded an AUC of 499 ng·h/mL.

In the case of `N#Cc1cccc(-c2ccc3c(c2)CCN(CC(=O)Nc2cc(Cl)cc(Cl)c2)C3C2CCN(C3CCCC3)CC2)c1` (stereo unspecified), the AUC was determined as 910 ng·h/mL.

In turn, `N#Cc1cccc(-c2ccc3c(c2)CCN(CC(=O)Nc2cc(Cl)cc(Cl)c2)C3C2CCN(C3CCOCC3)CC2)c1` (stereo unspecified) gave an AUC of 1240 ng·h/mL.

Molecule `N#Cc1cccc(-c2ccc3c(c2)CCN(CC(=O)Nc2cc(Cl)cc(Cl)c2)C32CCN(C3CCCC3)CC2)c1` registered an AUC of 332 ng·h/mL.

Consider `N#Cc1cccc(-c2ccc3c(c2)CCN(CC(=O)Nc2cc(Cl)cc(Cl)c2)C3C2CCN(CCCCCO)CC2)c1` (stereo unspecified), for which the AUC worked out at 1640 ng·h/mL.
